According to EP1435238A1, “Methods for treating apnea and apnea disorders using optically pure R (+) ondansetron” (Sepracor Inc., priority 1999, dated 2000):

Assay: Electrophysiological effects (EKG, QTc interval, cardiotoxicity) in dogs
Format: in vivo, mongrel dogs
Conditions: for prolongation of QTc interval (comparison in words): among the animals tested; for QTc Interval: dogs, rising cumulative dose at 30 minute intervals; for dogs died / survived: during or shortly after the experiment, four dogs per treatment, cumulative doses up to 4.0 mg/kg
[1] = 4.0 mg/kg, N=4 except S(-) ondansetron N=3

Experimental: An investigation was conducted to determine the effect of racemic ondansetron and the R(+)- and S(-)- enanatiomers of ondansetron in causing cardiac arrhythmias (cardiotoxicity) resulting from a lengthening of the cardiac action potential.
The order of administration was randomized to ensure that each dog received only one treatment.

SMILES: Cc1nccn1C[C@@H]1CCc2c(c3ccccc3n2C)C1=O [S(-)-Ondansetron, S(-) ondansetron]
- prolongation of QTc interval (comparison in words): most prolonged
- QTc Interval (1.0 mg/kg, N=4): 0.43 ± 0.02 s
- QTc Interval (2.0 mg/kg, N=4): 0.44 ± 0.04 s
- QTc Interval [1]: 0.44 ± 0.03 s

SMILES: Cc1nccn1C[C@H]1CCc2c(c3ccccc3n2C)C1=O [R(+)-Ondansetron, R(+) ondansetron]
- prolongation of QTc interval (comparison in words): shortest
- cardiotoxicity (comparison in words) (conclusion from QTc and mortality data): less cardiotoxicity than either S(-) ondansetron or racemic ondansetron
- QTc Interval (1.0 mg/kg, N=4): 0.39 ± 0.01 s
- QTc Interval (2.0 mg/kg, N=4): 0.40 ± 0.01 s
- QTc Interval [1]: 0.41 ± 0.02 s
- dogs died / survived: survived

SMILES: Cc1nccn1CC1CCc2c(c3ccccc3n2C)C1=O (racemic) [R,S-Ondansetron, ondansetron]
- prolongation of QTc interval (comparison in words): most prolonged
- QTc Interval (1.0 mg/kg, N=4): 0.41 ± 0.01 s
- QTc Interval (2.0 mg/kg, N=4): 0.45 ± 0.01 s
- QTc Interval [1]: 0.47 ± 0.01 s
- dogs died / survived: survived
